Measured values from patent publication US20080181866A1, “Amido Anti-viral Compounds” (Genelabs Technologies, Inc., priority 2006, published 2008).

Each compound was assayed on HCV replication (assay: HCV replicon assay (luciferase) in ET (Huh-lucubineo-ET) cell line). Details: Hepatitis C virus, tested at 5 μM; ET replicon cells; luciferase activity measured 48-72 hours later; relative to no compound control.
Type: cell-based
Protocol: A cell line, ET (Huh-lucubineo-ET) was used for screening of compounds of the present invention for inhibiting HCV replication. The ET cell line was stably transfected with RNA transcripts harboring a I389luc-ubi-neo/NS3-3′/ET; replicon with firefly luciferase-ubiquitin-neomycin phosphotransferase fusion protein and EMCV-IRES driven NS3-5B polyprotein containing the cell culture adaptive mutations (E1202G; T12801; K1846T) (Krieger at al, 2001 and unpublished). The ET cells were grown in DMEM (Dulbeco's Modified Eagle's Medium), supplemented with 10% fetal calf serum, 2 mM Glutamine, Penicillin (100 IU/mL)/Streptomycin (100 μg/mL), 1× nonessential amino acids, and 250 μg/mL G418 (“Geneticin”). They were all available through Life Technologies (Bethesda, Md.). The cells were plated at 0.5-1.0×10^4 cells/well in the 96 well plates and incubated for 24 hrs before adding testing compounds. Then the compounds were added to the cells to achieve a final concentration of 0.1 nM to 50 μM and a final DMSO concentration of 0.5%. Luciferase activity were measured 48-72 hours later by adding a lysis buffer and the substrate (Catalog number Glo-lysis buffer E2661 and Bright-Glo luciferase system E2620 Promega, Madison, Wis.). Cells should not be too confluent during the assay. Percent inhibition of replication was plotted relative to no compound control. Under the same condition, cytotoxicity of the compounds was determined using cell proliferation reagent, WST-1 (Roche, Germany). The compounds showing antiviral activities, but no significant cytotoxicities were chosen to determine EC50 and TC50. For these determinations, a 10 point 2-fold serial dilution for each compound was used, which spans a concentration range of 1000 fold. EC50 and similarly TC50 values were calculated by fitting % inhibition at each concentration to the following equation:
% inhibition=100%/[(IC50/[I])^b+1]
where b is Hill's coefficient.
In some preferred embodiments compounds of Formula I will have a % inhibition of at least 20% when tested at 5 μM. In other embodiments the compounds of Formula I will have a % inhibition of at least 50% when tested at 5 μM.

Structure (SMILES)	inhibition at 5 µM [%]
COC(=O)c1ccc(C2SC[C@@H](C(=O)Nc3nc(-c4ccc(C(=O)NC5CC5)cc4)cs3)N2C(=O)OCc2ccccc2)cc1 (mixture of isomers) [Compound 7051, (R)-4-[4-(4-Cyclopropylcarbamoyl-phenyl)-thiazol-2-ylcarbamoyl]-2-(4-methoxycarbonyl-phenyl)-thiazolidine-3-carboxylic acid benzyl ester]	99.4
Cn1ccnc1C1SC[C@@H](C(=O)Nc2nc(-c3ccc(C(=O)NC4CC4)cc3)cs2)N1C(=O)OCc1ccccc1 (mixture of isomers) [Compound 7053, (R)-4-[4-(4-Cyclopropylcarbamoyl-phenyl)-thiazol-2-ylcarbamoyl]-2-(1-methyl-1H-imidazol-2-yl)-thiazolidine-3-carboxylic acid benzyl ester]	99.6
O=C(NC1CC1)c1ccc(-c2csc(NC(=O)[C@@H]3CSC(c4ncco4)N3C(=O)OCc3ccccc3)n2)cc1 (mixture of isomers) [Compound 7056, (R)-4-[4-(4-Cyclopropylcarbamoyl-phenyl)-thiazol-2-ylcarbamoyl]-2-oxazol-2-yl-thiazolidine-3-carboxylic acid benzyl ester]	99.9
COC(=O)c1cccc(C2SC[C@@H](C(=O)Nc3nc(-c4ccc(C(=O)NC5CC5)cc4)cs3)N2C(=O)OCc2ccccc2)c1 (mixture of isomers) [Compound 7057, (R)-4-[4-(4-Cyclopropylcarbamoyl-phenyl)-thiazol-2-ylcarbamoyl]-2-(3-methoxycarbonyl-phenyl)-thiazolidine-3-carboxylic acid benzyl ester]	100
O=C(O)CCC1SC[C@@H](C(=O)Nc2nc(-c3ccc(C(=O)NC4CC4)cc3)cs2)N1C(=O)OCc1ccccc1 (mixture of isomers) [Compound 7065, 2-(2-Carboxy-ethyl)-4-[4-(4-cyclopropylcarbamoyl-phenyl)-thiazol-2-ylcarbamoyl]-thiazolidine-3-carboxylic acid benzyl ester]	92
O=C(NC1CC1)c1ccc(-c2csc(NC(=O)[C@@H]3CSC(c4cccc(CN5CCOCC5)c4)N3C(=O)OCc3ccccc3)n2)cc1 (mixture of isomers) [Compound 7080, 4-[4-(4-Cyclopropylcarbamoyl-phenyl)-thiazol-2-ylcarbamoyl]-2-(3-morpholin-4-ylmethyl-phenyl)-thiazolidine-3-carboxylic acid benzyl ester]	100
CC(C)(C)OC(=O)N1CCCC(C2SC[C@@H](C(=O)Nc3nc(-c4ccc(C(=O)NC5CC5)cc4)cs3)N2C(=O)OCc2ccccc2)C1 (mixture of isomers) [Compound 7098, 3-{3-Benzyloxycarbonyl-4-[4-(4-cyclopropylcarbamoyl-phenyl)-thiazol-2-ylcarbamoyl]-thiazolidin-2-yl}-piperidine-1-carboxylic acid tert-butyl ester]	99.9
CC(=O)c1ccc(C2SC[C@@H](C(=O)Nc3nc(-c4ccc(C(=O)NC5CC5)cc4)cs3)N2C(=O)OCc2ccccc2)cc1 (mixture of isomers) [Compound 7109, 2-(4-Acetyl-phenyl)-4-[4-(4-cyclopropylcarbamoyl-phenyl)-thiazol-2-ylcarbamoyl]-thiazolidine-3-carboxylic acid benzyl ester]	100
CN(C)C(=O)CCCCC1SC[C@@H](C(=O)Nc2nc(-c3ccc(C(=O)NC4CC4)cc3)cs2)N1C(=O)OCc1ccccc1 (mixture of isomers) [Compound 7125, 4-[4-(4-Cyclopropylcarbamoyl-phenyl)-thiazol-2-ylcarbamoyl]-2-(4-dimethylcarbamoyl-butyl)-thiazolidine-3-carboxylic acid benzyl ester]	100
CC(=O)N1CCCC(C2SC[C@@H](C(=O)Nc3nc(-c4ccc(C(=O)NC5CC5)cc4)cs3)N2C(=O)OCc2ccccc2)C1 (mixture of isomers) [Compound 7133, 2-(1-Acetyl-piperidin-3-yl)-4-[4-(4-cyclopropylcarbamoyl-phenyl)-thiazol-2-ylcarbamoyl]-thiazolidine-3-carboxylic acid benzyl ester]	100
CC(C)(C)OC(=O)N1C(c2cccnc2)SC[C@H]1C(=O)Nc1nc(-c2ccc(C(=O)NC3CC3)cc2)cs1 (single isomer, unassigned) [Compound 7032, 4-[4-(4-Cyclopropylcarbamoyl-phenyl)-thiazol-2-ylcarbamoyl]-2-pyridin-3-yl-thiazolidine-3-carboxylic acid tert-butyl ester]	99.2
Cn1ccnc1C1SC[C@@H](C(=O)Nc2nc(-c3ccc(C(=O)NC4CC4)cc3)cs2)N1C(=O)OCc1ccccc1 (single isomer, unassigned) [Compound 7054, 4-[4-(4-Cyclopropylcarbamoyl-phenyl)-thiazol-2-ylcarbamoyl]-2-(1-methyl-1H-imidazol-2-yl)-thiazolidine-3-carboxylic acid benzyl ester]	94.1
O=C(NC1CC1)c1ccc(NC(=O)[C@@H]2CSC(c3ccncc3)N2C(=O)OCc2ccccc2)cc1 (stereo in doubt) [Compound 7066, 4-(4-Cyclopropylcarbamoyl-phenylcarbamoyl)-2-pyridin-4-yl-thiazolidine-3-carboxylic acid benzyl ester]	6.9
O=C(Nc1ccc(CNS(=O)(=O)c2ccc(-c3ccccc3)cc2)cc1)[C@@H]1CSC(c2ccncc2)N1C(=O)OCc1ccccc1 (stereo in doubt) [Compound 7073, 4-{4-[(Biphenyl-4-sulfonylamino)-methyl]-phenylcarbamoyl}-2-pyridin-4-yl-thiazolidine-3-carboxylic acid benzyl ester]	65.3
O=C(NCc1ccc(NC(=O)[C@@H]2CSC(c3ccncc3)N2C(=O)OCc2ccccc2)cc1)c1ccccc1 (stereo in doubt) [Compound 7077, 4-[4-(Benzoylamino-methyl)-phenylcarbamoyl]-2-pyridin-4-yl-thiazolidine-3-carboxylic acid benzyl ester]	2.1
N#Cc1cccc(C2OC[C@@H](C(=O)Nc3nc(-c4ccc(C(=O)NC5CC5)cc4)cs3)N2C(=O)OCc2ccccc2)c1 (stereo in doubt) [Compound 7081, 2-(3-Cyano-phenyl)-4-[4-(4-cyclopropylcarbamoyl-phenyl)-thiazol-2-ylcarbamoyl]-oxazolidine-3-carboxylic acid benzyl ester]	100
O=C(O)CCCCC1SC[C@@H](C(=O)Nc2nc(-c3ccc(C(=O)NC4CC4)cc3)cs2)N1C(=O)OCc1ccccc1 (stereo in doubt) [Compound 7088, 2-(4-Carboxy-butyl)-4-[4-(4-cyclopropylcarbamoyl-phenyl)-thiazol-2-ylcarbamoyl]-thiazolidine-3-carboxylic acid benzyl ester]	99.8
CNC(=O)CCC1SC[C@@H](C(=O)Nc2nc(-c3ccc(C(=O)NC4CC4)cc3)cs2)N1C(=O)OCc1ccccc1 (stereo in doubt) [Compound 7091, 4-[4-(4-Cyclopropylcarbamoyl-phenyl)-thiazol-2-ylcarbamoyl]-2-(2-methylcarbamoyl-ethyl)-thiazolidine-3-carboxylic acid benzyl ester]	100
O=C(NC1CC1)c1ccc(-c2csc(NC(=O)[C@@H]3COC(CC4CCOCC4)N3C(=O)OCc3ccccc3)n2)cc1 (stereo in doubt) [Compound 7095, 4-[4-(4-Cyclopropylcarbamoyl-phenyl)-thiazol-2-ylcarbamoyl]-2-(tetrahydropyran-4-ylmethyl)-oxazolidine-3-carboxylic acid benzyl ester]	99.9
CC1(c2ccncc2)SC[C@@H](C(=O)Nc2nc(-c3ccc(C(=O)NC4CC4)cc3)cs2)N1C(=O)OCc1ccccc1 (stereo in doubt) [Compound 7096, 4-[4-(4-Cyclopropylcarbamoyl-phenyl)-thiazol-2-ylcarbamoyl]-2-methyl-2-pyridin-4-yl-thiazolidine-3-carboxylic acid benzyl ester]	99.9
O=C(NC1CC1)c1ccc(-c2csc(NC(=O)[C@@H]3CSC(CCCCC(=O)N4CCCCC4)N3C(=O)OCc3ccccc3)n2)cc1 (stereo in doubt) [Compound 7102, 4-[4-(4-Cyclopropylcarbamoyl-phenyl)-thiazol-2-ylcarbamoyl]-2-(5-oxo-5-piperidin-1-yl-pentyl)-thiazolidine-3-carboxylic acid benzyl ester]	100

Same assay, conditions: tested at 5 μM; ET replicon cells; luciferase activity measured 48-72 hours later; relative to no compound control; 5 µM

Structure (SMILES)	% inhibition at 5 μM [%]
CC(C)(C)OC(=O)N1C(c2cccnc2)SC[C@H]1C(=O)Nc1nc(-c2ccc(C(=O)NC3CC3)cc2)cs1 (single isomer, unassigned) [Compound 7055, 4-[4-(4-Cyclopropylcarbamoyl-phenyl)-thiazol-2-ylcarbamoyl]-2-pyridin-3-yl-thiazolidine-3-carboxylic acid tert-butyl ester]	99.1
